Results as given in PubChem BioAssay (NCI).
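Results reflect a 48-hour exposure of cells in 96-well plates to compound at five concentrations. TGI marks complete inhibition of growth.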

Legend:
Test in all cases: DTP human tumour cell line panel, 48 h
786-0 renal = test system: 786-0 renal
A549 NSCLC = test system: A549 NSCLC
ACHN renal = test system: ACHN renal
BT-549 breast = test system: BT-549 breast
CCRF-CEM leukemia = test system: CCRF-CEM leukemia
COLO 205 colon = test system: COLO 205 colon
HCC-2998 colon = test system: HCC-2998 colon
HCT-116 colon = test system: HCT-116 colon
HCT-15 colon = test system: HCT-15 colon
HOP-62 NSCLC = test system: HOP-62 NSCLC
HS 578T breast = test system: HS 578T breast
HT29 colon = test system: HT29 colon
IGROV1 ovarian = test system: IGROV1 ovarian
K-562 leukemia = test system: K-562 leukemia
KM12 colon = test system: KM12 colon
LOX IMVI melanoma = test system: LOX IMVI melanoma
M14 melanoma = test system: M14 melanoma
MCF7 breast = test system: MCF7 breast
MDA-MB-231 breast = test system: MDA-MB-231 breast
MDA-MB-435 = test system: MDA-MB-435
MDA-N = test system: MDA-N
MOLT-4 leukemia = test system: MOLT-4 leukemia
NCI-H226 lung = test system: NCI-H226 lung
NCI-H23 lung = test system: NCI-H23 lung
NCI-H460 lung = test system: NCI-H460 lung
NCI/ADR-RES ovarian = test system: NCI/ADR-RES ovarian
OVCAR-3 ovarian = test system: OVCAR-3 ovarian
OVCAR-4 ovarian = test system: OVCAR-4 ovarian
OVCAR-5 ovarian = test system: OVCAR-5 ovarian
OVCAR-8 ovarian = test system: OVCAR-8 ovarian
PC-3 prostate = test system: PC-3 prostate
RPMI-8226 leukemia = test system: RPMI-8226 leukemia
SF-268 CNS = test system: SF-268 CNS
SF-295 CNS = test system: SF-295 CNS
SF-539 CNS = test system: SF-539 CNS
SK-MEL-2 melanoma = test system: SK-MEL-2 melanoma
SK-MEL-28 melanoma = test system: SK-MEL-28 melanoma
SK-MEL-5 melanoma = test system: SK-MEL-5 melanoma
SK-OV-3 ovarian = test system: SK-OV-3 ovarian
SN12C renal = test system: SN12C renal
SNB-19 CNS = test system: SNB-19 CNS
SNB-75 CNS = test system: SNB-75 CNS
SR leukemia = test system: SR leukemia
SW-620 colon = test system: SW-620 colon
TK-10 renal = test system: TK-10 renal
U251 CNS = test system: U251 CNS
UACC-257 melanoma = test system: UACC-257 melanoma
UO-31 renal = test system: UO-31 renal
A498 renal = test system: A498 renal
CAKI-1 renal = test system: CAKI-1 renal
DU-145 prostate = test system: DU-145 prostate
EKVX NSCLC = test system: EKVX NSCLC
HOP-92 NSCLC = test system: HOP-92 NSCLC
MALME-3M melanoma = test system: MALME-3M melanoma
NCI-H522 lung = test system: NCI-H522 lung
RXF 393 renal = test system: RXF 393 renal
UACC-62 melanoma = test system: UACC-62 melanoma

C[C@@]1(Br)C[C@@](C)(Cl)[C@@H](Br)CC1/C=C/Cl (stereo partly specified)
TGI (786-0 renal): 30.2 µM
TGI (A549 NSCLC): 61.7 µM
TGI (ACHN renal): 32 µM
TGI (BT-549 breast): 36 µM
TGI (CCRF-CEM leukemia): 27.7 µM
TGI (COLO 205 colon): 29 µM
TGI (HCC-2998 colon): > 100 µM
TGI (HCT-116 colon): 22.9 µM
TGI (HCT-15 colon): > 100 µM
TGI (HOP-62 NSCLC): 30.7 µM
TGI (HS 578T breast): 30.6 µM
TGI (HT29 colon): 29.6 µM
TGI (IGROV1 ovarian): 86.1 µM
TGI (K-562 leukemia): > 100 µM
TGI (KM12 colon): 29.6 µM
TGI (LOX IMVI melanoma): 31.4 µM
TGI (M14 melanoma): 33.2 µM
TGI (MCF7 breast): 31.7 µM
TGI (MDA-MB-231 breast): 36.2 µM
TGI (MDA-MB-435): 39.2 µM
TGI (MDA-N): 29.7 µM
TGI (MOLT-4 leukemia): 33.8 µM
TGI (NCI-H226 lung): 22.8 µM
TGI (NCI-H23 lung): > 100 µM
TGI (NCI-H460 lung): > 100 µM
TGI (NCI/ADR-RES ovarian): 25.8 µM
TGI (OVCAR-3 ovarian): 28.4 µM
TGI (OVCAR-4 ovarian): > 100 µM
TGI (OVCAR-5 ovarian): 29.1 µM
TGI (OVCAR-8 ovarian): 29.5 µM
TGI (PC-3 prostate): 29.3 µM
TGI (RPMI-8226 leukemia): 73.7 µM
TGI (SF-268 CNS): 23 µM
TGI (SF-295 CNS): 27.4 µM
TGI (SF-539 CNS): 31 µM
TGI (SK-MEL-2 melanoma): 33.2 µM
TGI (SK-MEL-28 melanoma): 53.7 µM
TGI (SK-MEL-5 melanoma): 26.4 µM
TGI (SK-OV-3 ovarian): 37 µM
TGI (SN12C renal): 28.2 µM
TGI (SNB-19 CNS): 45.3 µM
TGI (SNB-75 CNS): 25.4 µM
TGI (SR leukemia): 41 µM
TGI (SW-620 colon): 91.8 µM
TGI (TK-10 renal): 38 µM
TGI (U251 CNS): 42.6 µM
TGI (UACC-257 melanoma): 37.3 µM
TGI (UO-31 renal): 37.4 µM

COc1ccc(C(=O)NCCC2CN(S(=O)(=O)C(F)(F)F)c3ccccc32)c(OC)c1 (stereo unspecified)
TGI (786-0 renal): > 100 µM
TGI (A498 renal): > 100 µM
TGI (A549 NSCLC): > 100 µM
TGI (ACHN renal): > 100 µM
TGI (CAKI-1 renal): > 100 µM
TGI (CCRF-CEM leukemia): 70.3 µM
TGI (COLO 205 colon): > 100 µM
TGI (DU-145 prostate): > 100 µM
TGI (EKVX NSCLC): > 100 µM
TGI (HCC-2998 colon): > 100 µM
TGI (HCT-116 colon): > 100 µM
TGI (HCT-15 colon): > 100 µM
TGI (HOP-62 NSCLC): > 100 µM
TGI (HOP-92 NSCLC): > 100 µM
TGI (HS 578T breast): > 100 µM
TGI (HT29 colon): 73.8 µM
TGI (IGROV1 ovarian): > 100 µM
TGI (K-562 leukemia): > 100 µM
TGI (KM12 colon): 71.3 µM
TGI (M14 melanoma): > 100 µM
TGI (MALME-3M melanoma): 35.3 µM
TGI (MCF7 breast): > 100 µM
TGI (MDA-MB-231 breast): > 100 µM
TGI (MDA-MB-435): > 100 µM
TGI (MDA-N): > 100 µM
TGI (MOLT-4 leukemia): > 100 µM
TGI (NCI-H23 lung): > 100 µM
TGI (NCI-H460 lung): > 100 µM
TGI (NCI-H522 lung): 46.8 µM
TGI (NCI/ADR-RES ovarian): 87.2 µM
TGI (OVCAR-3 ovarian): > 100 µM
TGI (OVCAR-4 ovarian): > 100 µM
TGI (OVCAR-5 ovarian): > 100 µM
TGI (PC-3 prostate): > 100 µM
TGI (RPMI-8226 leukemia): > 100 µM
TGI (RXF 393 renal): > 100 µM
TGI (SF-295 CNS): > 100 µM
TGI (SK-MEL-2 melanoma): > 100 µM
TGI (SK-MEL-28 melanoma): > 100 µM
TGI (SK-MEL-5 melanoma): 43.6 µM
TGI (SK-OV-3 ovarian): > 100 µM
TGI (SNB-19 CNS): > 100 µM
TGI (SR leukemia): > 100 µM
TGI (SW-620 colon): > 100 µM
TGI (U251 CNS): > 100 µM
TGI (UACC-257 melanoma): > 100 µM
TGI (UACC-62 melanoma): 80.1 µM
TGI (UO-31 renal): > 100 µM
